# Data reported in paper PMC4904242, “Comparative chemical genomics reveal that the spiroindolone antimalarial KAE609 (Cipargamin) is a P-type ATPase inhibitor” (Scientific Reports, 2016).
# Molecular target: T1, ScPma1p (Saccharomyces cerevisiae, UniProt P05030)
# T1 construct: gene PMA1; ScPma1p-coated secretory vesicles from S. cerevisiae overexpressing ScPMA1
# Test: cell-free vesicle ATPase assay (Pi release)
# Assay type: biochemical
# T1 sequence (P05030 whole entry): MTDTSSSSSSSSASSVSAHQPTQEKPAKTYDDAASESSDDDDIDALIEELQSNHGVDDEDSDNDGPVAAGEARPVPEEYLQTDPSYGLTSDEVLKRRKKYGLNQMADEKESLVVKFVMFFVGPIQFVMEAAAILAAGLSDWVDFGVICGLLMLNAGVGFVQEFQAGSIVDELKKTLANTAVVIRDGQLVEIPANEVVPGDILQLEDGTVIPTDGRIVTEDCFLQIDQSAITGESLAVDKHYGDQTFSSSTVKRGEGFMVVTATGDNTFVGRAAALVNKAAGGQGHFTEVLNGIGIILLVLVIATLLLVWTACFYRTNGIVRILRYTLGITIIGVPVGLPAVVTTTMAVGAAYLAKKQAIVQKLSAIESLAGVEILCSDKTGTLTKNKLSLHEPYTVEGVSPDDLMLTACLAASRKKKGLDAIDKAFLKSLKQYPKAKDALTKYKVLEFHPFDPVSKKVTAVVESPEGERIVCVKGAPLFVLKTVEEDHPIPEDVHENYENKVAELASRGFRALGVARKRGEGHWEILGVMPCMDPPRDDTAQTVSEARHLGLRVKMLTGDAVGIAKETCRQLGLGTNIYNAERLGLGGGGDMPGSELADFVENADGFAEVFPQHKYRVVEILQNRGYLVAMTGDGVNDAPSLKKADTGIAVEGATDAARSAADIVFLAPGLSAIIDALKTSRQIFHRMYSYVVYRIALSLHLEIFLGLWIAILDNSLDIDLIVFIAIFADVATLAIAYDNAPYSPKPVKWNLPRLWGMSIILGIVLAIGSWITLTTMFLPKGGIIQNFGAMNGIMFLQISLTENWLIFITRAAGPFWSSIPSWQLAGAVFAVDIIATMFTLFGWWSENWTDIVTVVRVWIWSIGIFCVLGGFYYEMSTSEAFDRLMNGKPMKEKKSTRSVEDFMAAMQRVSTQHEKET
smiles,measurement,value
"C[C@H]1Cc2c([nH]c3cc(Cl)c(F)cc23)[C@@]2(N1)C(=O)Nc1ccc(Cl)cc12 [6′F 7′Cl, KAE609]",IC50,81.1 nM
